As usually defined, the Ki is a dissociation constant, usually derived from enzyme kinetics or from competition with a known ligand.

T1 sequence (P97639 whole entry): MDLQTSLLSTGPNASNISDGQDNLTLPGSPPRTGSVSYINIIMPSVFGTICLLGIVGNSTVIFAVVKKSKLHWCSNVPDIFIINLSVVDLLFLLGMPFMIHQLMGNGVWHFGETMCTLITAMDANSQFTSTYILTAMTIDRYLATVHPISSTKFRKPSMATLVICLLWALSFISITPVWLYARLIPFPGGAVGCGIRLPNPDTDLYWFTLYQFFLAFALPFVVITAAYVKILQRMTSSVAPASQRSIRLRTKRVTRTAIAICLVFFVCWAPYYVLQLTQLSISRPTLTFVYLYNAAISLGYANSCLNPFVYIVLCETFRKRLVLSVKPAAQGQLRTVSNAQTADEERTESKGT

The first assay concerns the target T1, rat MCH1 receptor (Rattus norvegicus, UniProt P97639).
T1 construct: expressed in transfected cells; host or cells: Human embryonic kidney Peak rapid 293 cells (Peakr293), transient, calcium phosphate; membranes
The experiment in a line: Radioligand binding assay at cloned rat MCH1 receptor ([3H]Compound A displacement). The note with it: KI, cloned rat MCH1, membranes of transfected Peakr293 cells, 0.08 nM [3H]Compound A, 25° C., 90 minutes. The method, then:
For binding assays, pellets of transfected cells are suspended in ice-cold buffer (20 mM Tris.HCl, 5 mM EDTA, pH 7.4) and homogenized by sonication for 7 sec. The cell lysates are centrifuged at 200×g for 5 min at 4° C. The supernatants are then centrifuged at 40,000×g for 20 min at 4° C. The resulting pellets are washed once in the homogenization buffer and suspended in binding buffer (see methods for radioligand binding). Protein concentrations are determined by the method of Bradford (1976) using bovine serum albumin as the standard. Binding assays are usually performed immediately, however it is possible to prepare membranes in batch and store frozen in liquid nitrogen for future use.
Radioligand binding assays for the rat MCH1 receptor were carried out using plasmid pcDNA3.1-rMCH1-f (ATCC Patent Deposit Designation No. PTA-3505). Plasmid pcDNA3.1-rMCH1-f comprises the regulatory elements necessary for expression of DNA in a mammalian cell operatively linked to DNA encoding the rat MCH1 receptor so as to permit expression thereof. Plasmid pcDNA3.1-rMCH1-f was deposited on Jul. 5, 2001, with the American Type Culture Collection (ATCC), 12301 Parklawn Drive, Rockville, Md. 20852, U.S.A. under the provisions of the Budapest Treaty for the International Recognition of the Deposit of Microorganisms for the Purposes of Patent Procedure and was accorded ATCC Patent Deposit Designation No. PTA-3505.
Human embryonic kidney Peak rapid 293 cells (Peakr293 cells) were transiently transfected with DNA encoding the MCH1 receptor utilizing the calcium phosphate method and cell membranes were prepared as described above. Binding experiments with membranes from Peakr293 cells transfected with the rat MCH1 receptor were performed with 0.08 nM [^3H]Compound A (custom labeled by Amersham) (the synthesis of Compound A is described in detail below) using an incubation buffer consisting of 50 mM Tris pH 7.4, 10 mM MgCl2, 0.16 mM PMSF, 1 mM 1,10 phenantroline and 0.2% BSA. Binding was performed at 25° C. for 90 minutes. Incubations were terminated by rapid vacuum filtration over GF/C glass fiber filters, presoaked in 5% PEI using […] Tris pH 7.4 as wash buffer. In all experiments, nonspecific binding is defined using […] Compound A.
The compounds described above were assayed using cloned rat MCH1.
`O=C1c2ccccc2C(=O)N1CCCCN1CCC2(C=Cc3ccccc32)CC1` [Example 1, 2-(4-(-(SPIRO[INDENE-1,4′-PIPERIDINE]-10-YL)BUTYL)BENZO[C]AZOLINE-1,3-DIONE] gave a Ki of 807 nM.

The compound `O=C(NCCCCCN1CCC2(CCc3ccccc32)CC1)C(c1ccccc1)c1ccccc1` [Example 3, 2,2-DIPHENYL-N-(5-(SPIRO[INDANE-1,4′-PIPERIDINE]-10-YL)PENTYL)ACETAMIDE] came in with a Ki of 378 nM. Consider `O=C(NCCCCCCN1CCC2(CCc3ccccc32)CC1)C(c1ccccc1)c1ccccc1` [Example 5, 2,2-DIPHENYL-N-(6-(SPIRO[INDANE-1,4′-PIPERIDINE]-10-Y)LHEXYL)ACETAMIDE], for which the Ki was determined as 732 nM. Still for that read-out and setting: as for `O=C(Cc1ccc(F)cc1)NCCCCN1CCC2(CCc3ccccc32)CC1` [Example 9, 2-(4-FLUOROPHENYL)-N-(4-(SPIRO[INDANE-1,4′-PIPERIDINE]-10-YL)BUTYL)ACETAMIDE], the figure is 691 nM; as for `CCCc1nn(-c2ccc(Cl)cc2)cc1C(=O)NCCCCCCN1CCC2(CCc3ccccc32)CC1` [Example 10, [1-(4-CHLOROPHENYL)-3-PROPYL)PYRAZOL-4-YL]-N-(6-(SPIRO[INDANE-1,4′-PIPERIDINE]-10-YL)HEXYL)CARBOXAMIDE], 764 nM; as for `O=C(NCCCCCCN1CCC2(CCc3ccccc32)CC1)c1cc(F)cc(F)c1` [Example 14], 843 nM. Regarding `O=C(NCCCCN1CCC2(CCc3ccccc32)CC1)c1ccc(Oc2cc(Cl)cc(Cl)c2)o1` [Example 15, [5-(3,5-dichlorophenoxy)(2-furyl)]-N-(4-(SPIRO[indane-1,4′-piperidine]-10-YL)BUTYL)carboxamide], the Ki came out at 434 nM. Take `O=C(NCCCCCCN1CCC2(CCc3ccccc32)CC1)c1ccc(Oc2cc(Cl)cc(Cl)c2)o1` [Example 16, [5-(3,5-DICHLOROPHENOXY)(2-FURYL)]-N-(6-(SPIRO[INDANE-1,4′-PIPERIDINE]-10-YL)HEXYL)CARBOXAMIDE]: the Ki worked out at 450 nM. For the compound `O=C(NCCCN1CCC2(CCc3ccccc32)CC1)c1ccc(Oc2cc(Cl)cc(Cl)c2)o1` [Example 17, [5-(3,5-DICHLOROPHENOXY)(2-FURYL)]-N-(3-(SPIRO[INDANE-1,4′-PIPERIDINE]-10-YL)PROPYL)CARBOXAMIDE], the affinity corresponds to a Ki of 935 nM. For the compound `O=C(NCCCCCCN1CCC2(CCc3ccccc32)CC1)c1ccc(F)c(F)c1` [Example 19, (3,4-DIFLUOROPHENYL)-N-(6-(SPIRO[INDANE-1,4′-PIPERIDINE]-10-YL)HEXYL)CARBOXAMIDE], the affinity corresponds to a Ki of 412 nM. As for `CC(C)(C)c1cc(C(=O)NCCCCCCN2CCC3(CCc4ccccc43)CC2)n(Cc2ccccc2)n1` [Example 20, [3-(TERT-BUTYL)-1-BENZYL)PYRAZOL-5-YL]-N-(6-(SPIRO[INDANE-1,4′-PIPERIDINE]-10-YL)HEXYL)CARBOXAMIDE], the affinity, expressed as Ki, was 510 nM. Turning to `S=C(NCCCCCN1CCC2(CCc3ccccc32)CC1)Nc1cccc2ccccc12` [Example 22, (NAPHTHYLAMINO)[(5-(SPIRO[INDANE-1,4′-PIPERIDINE]-10-YL)PENTYL)AMINO]METHANE-1-THIONE], the Ki was 517 nM. Compound `S=C(NCCCCN1CCC2(CCc3ccccc32)CC1)Nc1cccc2ccccc12` [Example 23, (NAPHTHYLAMINO)[(4-(SPIRO[INDANE-1,4′-PIPERIDINE]-10-YL-BUTYL)AMINO]METHANE-1-THIONE] came in with a Ki of 818 nM. Take `S=C(NCCCCCCN1CCC2(CCc3ccccc32)CC1)Nc1cccc2ccccc12` [Example 24, (NAPHTHYLAMINO)[(6-SPIRO[INDANE-1,4′-PIPERIDINE]-10-YLHEXYL)AMINO]METHANE-1-THIONE]: the Ki was 668 nM.

For `O=C(NCCCCN1CCC2(CCc3ccccc32)CC1)Nc1cc(Cl)cc(Cl)c1` [Example 26, N-(3,5-DICHLOROPHENYL)[(4-SPIRO[INDANE-1,4′-PIPERIDINE]-10-YLBUTYL)AMINO]CARBOXAMIDE], the affinity, expressed as Ki, was 512 nM. `O=C(NCCCCN1CCC2(CCc3ccccc32)CC1)c1sc2ccccc2c1Cl` [Example 34, (3-CHLOROBENZO[B]THIOPHEN-2-YL)-N-(4-(SPIRO[INDANE-1,4′-PIPERIDINE]-10-YL)BUTYL)CARBOXAMIDE] registered a Ki of 883 nM.

The same assay, now with this note: cloned rat MCH1, membranes of transfected Peakr293 cells, 0.08 nM [3H]Compound A, 25° C., 90 minutes; read-out: KI.
As to `O=C(NCCCCCCN1CCC2(CCc3ccccc32)CC1)c1ccc(-c2ccccc2)cc1` [Example 2, (4-PHENYL)PHENYL)-N-(6-(SPIRO[INDANE-1,4′-PIPERIDINE]-10-YL)HEXYL)CARBOXAMIDE], the Ki was determined as 970 nM. Consider `O=C(NCCCCN1CCC2(CCc3ccccc32)CC1)C(c1ccccc1)c1ccccc1` [Example 4, 2,2-DIPHENYL-N-(4-(SPIRO[INDANE-1,4′-PIPERIDINE]-10-YL)BUTYL)ACETAMIDE], for which the Ki stood at 214 nM. Same read-out and setting: next, `O=C(NCCCN1CCC2(CCc3ccccc32)CC1)C(c1ccccc1)c1ccccc1` [Example 6, 2,2-DIPHENYL-N-(3-(SPIRO[INDANE-1,4′-PIPERIDINE]-10-YL)PROPYL)ACETAMIDE]: 33.8 nM.

With `O=C(NCCCCN1CCC2(CCc3ccccc32)CC1)c1cc(Cl)cc(Cl)c1` [Example 7, (3,5-DICHLOROPHENYL)-N-[(4-(SPIRO[INDANE-1,4′-PIPERIDINE]-10-YL)BUTYL)AMINO]CARBOXAMIDE], the Ki amounted to 271 nM. For the compound `O=C(NCCCN1CCC2(CCc3ccccc32)CC1)c1cc(Cl)cc(Cl)c1` [Example 8, (3,5-DICHLOROPHENYL)-N-(3-(SPIRO[INDANE-1,4′-PIPERIDINE]-10-YL)PROPYL)CARBOXAMIDE], the Ki was 914 nM.

With `Cc1onc(-c2c(F)cccc2Cl)c1C(=O)NCCCCCCN1CCC2(CCc3ccccc32)CC1` [Example 12, [3-(2-CHLORO-6-FLUOROPHENYL)-5-METHYLISOXAZOL-4-YL]-N-(6-(SPIRO[INDANE-1,4′-PIPERIDINE]-10-YL)HEXYL)CARBOXAMIDE], the Ki was found to be 661 nM. On the same count and under the same terms, as for `O=C(NCCCCN1CCC2(CCc3ccccc32)CC1)c1cc(F)cc(F)c1` [Example 13, (3,5-DIFLUOROPHENYL)-N-(4-(SPIRO[INDANE-1,4′-PIPERIDINE]-10-YL)BUTYL)CARBOXAMIDE], the figure is 270 nM; as for `O=C(NCCCCN1CCC2(CCc3ccccc32)CC1)c1cccc(Cl)c1` [Example 18, (3-CHLOROPHENYL)-N-(4-(SPIRO[INDANE-1,4′-PIPERIDINE]-10-YL)BUTYL)CARBOXAMIDE], 342 nM.

Consider `O=S(=O)(NCCCCCN1CCC2(CCc3ccccc32)CC1)c1cccc(C(F)(F)F)c1` [Example 21, (5-(SPIRO[INDANE-1,4′-PIPERIDINE]-10-YL)PENTYL){[3-(TRIFLUORO-METHYL)PHENYL]SULFONYL}AMINE], for which the inhibition constant (Ki) turned out to be 992 nM. Turning to `O=C(NCCCCCN1CCC2(CCc3ccccc32)CC1)Nc1cc(Cl)cc(Cl)c1` [Example 25, N-(3,5-DICHLOROPHENYL)[(5-(SPIRO[INDANE-1,4′-PIPERIDINE]-10-YL)PENTYL)AMINO]CARBOXAMIDE], the Ki turned out to be 542 nM.

For the compound `O=C(NCCCCCN1CCC2(CCc3ccccc32)CC1)Nc1ccc(-c2ccccc2)cc1` [Example 27, N-(4-PHENYL)PHENYL)[(5-(SPIRO[INDANE-1,4′-PIPERIDINE]-10-YL)PENTYL)AMINO]CARBOXAMIDE], the Ki was determined as 662 nM. Turning to `O=C(NCCCCN1CCC2(CCc3ccccc32)CC1)Nc1ccc(-c2ccccc2)cc1` [Example 28, N-(4-PHENYL)PHENYL)[(4-(SPIRO[INDANE-1,4′-PIPERIDINE]-10-YL)BUTYL)AMINO]CARBOXAMIDE], the inhibitory constant (Ki) turned out to be 549 nM. On to `O=C(NCCCCCCN1CCC2(CCc3ccccc32)CC1)c1ccc(-c2ccccc2)cc1` [Example 29, (4-PHENYL)PHENYL)-N-(6-(SPIRO[INDANE-1,4′-PIPERIDINE]-10-YL)HEXYL)CARBOXAMIDE], for which the Ki was determined as 431 nM. As to `O=C(NCCCCCN1CCC2(CCc3ccccc32)CC1)c1cccnc1Oc1ccc(Cl)cc1` [Example 31, [2-(4-CHLOROPHENOXY)(3-PYRIDYL)]-N-(5-(SPIRO[INDANE-1,4′-PIPERIDINE]-10-YL)PENTYL)CARBOXAMIDE], the Ki is 212 nM. On to `O=C(NCCCCN1CCC2(CCc3ccccc32)CC1)c1cccnc1Oc1ccc(Cl)cc1` [Example 32, [2-(4-CHLOROPHENOXY)(3-PYRIDYL)]-N-(4-(SPIRO[INDANE-1,4′-PIPERIDINE]-10-YL)BUTYL)CARBOXAMIDE], for which the Ki was 388 nM. Same read-out and setting: as for `O=C(NCCCCCCN1CCC2(CCc3ccccc32)CC1)c1cccnc1Oc1ccc(Cl)cc1` [Example 33, [2-(4-CHLOROPHENOXY)(3-PYRIDYL)]-N-(6-(SPIRO[INDANE-1,4′-PIPERIDINE]-10-YL)HEXYL)CARBOXAMIDE], the figure is 431 nM.

Source of the values: patent US7335665B2, “Spirocyclic piperidines as MCH1 antagonists and uses thereof” (H - Lundbeck A/S, priority 2003, dated 2008).
